Results reported in patent US20230271950A1, “ANTIBACTERIAL PICOLINAMIDE COMPOUNDS” (University of Notre Dame Du Lac, priority 2020, published 2023).

What was measured:
C. difficile ATCC 43255 = test: Mouse model of recurrent C. difficile infection; format: in vivo, mice; settings: VAN 50 mg/kg oral once a day for 5 days; days 10-15
Method: Next, compound 1 was evaluated in a mouse model of recurrent CDI.
Animals. Female C57BL/6 mice weighing 18-20 g and 6-8 weeks of age were used for the efficacy study (Jackson, Bar Harbor, Me.). Female CD-1 mice (24-31 g and 7-8 weeks of age) were used for the PK study. They were housed in groups of five mice in sterile polycarbonate shoeboxes with bedding consisting of ¼-inch corncob (The Andersons Ind., Maumee, Ohio) and Alpha-Dri (Shepherd Specialty Papers, Inc., Richland, Mich.). Mice were maintained on a 12-h light/dark cycle at 72° F. and were given Teklad 2918 irradiated extruded rodent diet and water ad libitum. All procedures were performed in accordance with and approved by the University of Notre Dame Institutional Animal Care and Use Committee.
C. difficile infection model. The recurrent C. difficile infection model reported by Chen et al. was used (Gastroenterology 2008, 135, 1984). […] Subsequently, mice were given a 10 mg/kg intraperitoneal injection of clindamycin. The following day, the mice were infected intragastrically with 10^4 CFU of C. difficile ATCC 43255. […] Body weights and survival were recorded for 25 days. The study was repeated a second time.

C. difficile = test: Minimum bactericidal concentration (MBC); format: cell-based, Clostridioides difficile
C. difficile ATCC43255 = test: Macromolecular synthesis assay (radioactive precursor incorporation); format: cell-based, Clostridioides difficile; settings: 0.5×MIC
Method: FIG. 2. Mechanism of action of compound 1. (A) Macromolecular biosynthesis assays: Compound 1 was incubated with C. difficile ATCC43255 at 0.5×MIC. […] The incubation time was 60 min for DNA, 120 min for peptidoglycan synthesis and RNA, and 180 min for protein synthesis. (B-G) Imaging of C. difficile […] vegetative cells (logarithmic growth) by scanning electron microscopy.
The mechanism of action of 1 was investigated using macromolecular synthesis assays. These assays measure the incorporation of radioactive precursors ([2,8-^3H]-adenine, [5,6-^3H]-uridine, 1-[3,4,5-^3H(N)]-leucine, and N-acetyl-d-[6-^3H]glucosamine) respectively into DNA, RNA, protein, and peptidoglycan. […] This analysis visualizes the cell wall as the outermost layer of the cell envelope of Gram-positive bacteria such as C. difficile.
Macromolecular synthesis assay. The macromolecular synthesis assay was performed by established methods. […] The radiolabeled precursors were purchased from Perkin Elmer (Waltham, Mass., USA).

ESKAPE panel = test: MIC against the ESKAPE panel; format: cell-based; settings: E. faecium, S. aureus, K. pneumoniae, A. baumannii, P. aeruginosa, Enterobacter species
Method: Minimum-inhibitory Concentration Determination. MICs for C. difficile strains and other gut bacteria were determined with the broth microdilution method as previously described (J. Antimicrob. Chemother. 2013, 68, 515). ESKAPE panel and MRSA MICs were determined as described in the Clinical & Laboratory Standards Institute guidelines.

CN[C@H](CC(C)C)C(=O)N[C@H]1C(=O)N[C@@H](CC(N)=O)C(=O)N[C@H]2C(=O)N[C@H]3C(=O)N[C@H](C(=O)N[C@H](C(=O)O)c4cc(O)cc(O)c4-c4cc3ccc4O)[C@H](O)c3ccc(c(Cl)c3)Oc3cc2cc(c3O[C@@H]2O[C@H](CO)[C@@H](O)[C@H](O)[C@H]2O[C@H]2C[C@](C)(N)[C@H](O)[C@H](C)O2)Oc2ccc(cc2Cl)[C@H]1O [VAN, vancomycin, reference compound]
recurrence of infection (loss of body weight) (C. difficile ATCC 43255): recurrence of infection is observed

O=C(O)c1ccc2oc(NC(=O)c3cc(Oc4cccc(OC(F)(F)F)c4)ccn3)nc2c1 [Compound 1, Sodium 2-(4-(3-(trifluoromethoxy)phenoxy)picolinamido)benzo[d]oxazole-5-carboxylate]
MBC higher than MIC (C. difficile; C. difficile): 64 fold
MBC (C. difficile; Clostridioides difficile, C. difficile): 4 µg/mL
bacteriostatic or bactericidal (by definition) (C. difficile; from MBC versus MIC): bacteriostatic
inhibition of DNA, RNA, and protein synthesis (C. difficile ATCC43255): Minimal levels of inhibition
inhibition of cell-wall peptidoglycan biosynthesis (C. difficile ATCC43255; N-acetyl-d-[6-^3H]glucosamine incorporation, 120 min): 55±4%

O=C(Nc1ncco1)c1ccnc(-c2ccc(Cl)c(Cl)c2)c1 [Compound 4, 2-(3,4-Dichlorophenyl)-N-(oxazol-2-yl)isonicotinamide]
activity against the ESKAPE panel (ESKAPE panel): active only against the Gram-positive members of the panel
